Assay results reported in US9381224B2, “Plant based formulation for the prevention and management of metabolic syndrome and cardiovascular disease mortality risk” (priority 2014, dated 2016).

System: Metabolic Syndrome cases
Test: Clinical study in diagnosed Metabolic Syndrome cases
Type: in vivo, human
Protocol: The study population consisted of 128 diagnosed Metabolic Syndrome cases (76 Men and 52 Women), aged 52.81±9.68 years at study entry. The cases were diagnosed as per criteria given by WHO for classification and diagnosis of Metabolic Syndrome.
After preliminary screening the subjects showing association with 3 or more than 3 above factors were selected. The clinical trial was conducted in three groups—
44 cases were treated with Ayurvedic formulation.
Body mass index (BMI) was calculated following formula {weight (kg)÷ height (m2)} and anthropometer was used for circumference measurement. Lipid profile including triglyceride was estimated by standard laboratory kits. TNF-[…], interleukin-6 was measured by ELISA kit, adiponectin by radioimmunoassay kit. CRP by kit for quantitative nephelometric determination of CRP in human serum or plasma by Turbox/Turbox analyzer and ELISA activity assay kit for Leptin level. Subjects suffering from any other disease known to affect the study parameters were excluded from the series. Upon recruitment all subjects gave informed written consent.

Q: For `CCCCCCCCCCC[C@@H](C[C@@H]1OC(=O)[C@H]1CCCCCC)OC(=O)[C@H](CC(C)C)NC=O` [Conventional drug, Orlistat], which HbA1c (After 3 months) is on record?
A: The HbA1c was 5.93%.

Q: And the PAI-1 (After 3 months)?
A: Its PAI-1 is 37.42 ng/mL.

Q: And the tPA-1 (After 3 months)?
A: The tPA-1 was 19.45 ng/mL.

Q: And the Adiponectin (After 6 months)?
A: The Adiponectin was 7.39 µg/mL.

Q: And the “Apolipo (B)” value (After 6 months)?
A: Its value is 152.87 mg/dL.

Q: What about the Diastolic blood pressure (After 6 months) of the same molecule?
A: Its Diastolic blood pressure is 86.24 mmHg.

Q: And the Endothelin (After 6 months)?
A: Its Endothelin is 988.73 pg/mL.

Q: What about the Fasting blood glucose (After 6 months) of the same molecule?
A: The Fasting blood glucose was 108.42 mg/dL.

Q: What about the HDL-c (After 6 months) of the same molecule?
A: Its HDL-c is 43.02 mg/dL.

Q: And the HbA1c (After 6 months)?
A: The HbA1c was 5.24%.

Q: What about the Interleukin-6 (After 6 months) of the same molecule?
A: The Interleukin-6 was 2.12 pg/mL.

Q: What about the LDL-c (After 6 months) of the same molecule?
A: The LDL-c was 114.32 mg/dL.

Q: What about the Leptin (After 6 months) of the same molecule?
A: Its Leptin is 25.73 µg/L.

Q: What about the PAI-1 (After 6 months) of the same molecule?
A: Its PAI-1 is 32.98 ng/mL.

Q: What about the Postprandial blood glucose (After 6 months) of the same molecule?
A: Its Postprandial blood glucose is 179.45 mg/dL.

Q: What about the Systolic blood pressure (After 6 months) of the same molecule?
A: Its Systolic blood pressure is 124.87 mmHg.

Q: And the TNF-α (After 6 months)?
A: The TNF-α was 488.90 pg/mL.

Q: And the Total cholesterol (After 6 months)?
A: The Total cholesterol was 216.92 mg/dL.

Q: And the Triglycerides (After 6 months)?
A: The Triglycerides was 287.93 mg/dL.

Q: What about the “hs CRP” value (After 6 months) of the same molecule?
A: The value was 3.64 mg/L.

Q: What about the tPA-1 (After 6 months) of the same molecule?
A: The tPA-1 was 18.46 ng/mL.

Q: What about the CD36 (Gender F, After 3 months) of the same molecule?
A: The CD36 was 156.42 ng/mL.

Q: And the CD36 (Gender F, After 6 months)?
A: Its CD36 is 155.90 ng/mL.

Q: What about the CD36 (Gender F, Initial) of the same molecule?
A: Its CD36 is 142.90 ng/mL.

Q: What about the CD36 (Gender M, After 3 months) of the same molecule?
A: Its CD36 is 173.64 ng/mL.

Q: And the CD36 (Gender M, After 6 months)?
A: The CD36 was 196.22 ng/mL.

Q: What about the Adiponectin (Initial) of the same molecule?
A: Its Adiponectin is 6.92 µg/mL.

Q: And the “Apolipo (B)” value (Initial)?
A: Its value is 188.73 mg/dL.

Q: What about the Diastolic blood pressure (Initial) of the same molecule?
A: The Diastolic blood pressure was 89.04 mmHg.

Q: What about the Endothelin (Initial) of the same molecule?
A: The Endothelin was 1286.93 pg/mL.

Q: What about the Fasting blood glucose (Initial) of the same molecule?
A: Its Fasting blood glucose is 136.42 mg/dL.

Q: And the HDL-c (Initial)?
A: The HDL-c was 41.62 mg/dL.

Q: And the HbA1c (Initial)?
A: Its HbA1c is 6.82%.

Q: And the Interleukin-6 (Initial)?
A: The Interleukin-6 was 2.25 pg/mL.

Q: And the LDL-c (Initial)?
A: Its LDL-c is 139.72 mg/dL.

Q: What about the Leptin (Initial) of the same molecule?
A: Its Leptin is 36.42 µg/L.

Q: And the PAI-1 (Initial)?
A: Its PAI-1 is 40.12 ng/mL.

Q: What about the Postprandial blood glucose (Initial) of the same molecule?
A: Its Postprandial blood glucose is 231.68 mg/dL.

Q: And the Systolic blood pressure (Initial)?
A: The Systolic blood pressure was 136.68 mmHg.

Q: What about the TNF-α (Initial) of the same molecule?
A: The TNF-α was 622.45 pg/mL.

Q: What about the Total cholesterol (Initial) of the same molecule?
A: The Total cholesterol was 247.90 mg/dL.

Q: What about the Triglycerides (Initial) of the same molecule?
A: The Triglycerides was 354.86 mg/dL.

Q: And the “hs CRP” value (Initial)?
A: The value was 4.93 mg/L.

Q: What about the tPA-1 (Initial) of the same molecule?
A: The tPA-1 was 21.23 ng/mL.
